Laboratory results: patent publication US20110294892A1, “Use of histone deacetylase inhibitors for the care of Philadephia-negative myeloproliferative syndromes” (priority 2008, published 2011)
Read-outs that look alike come from different tables or passages of the source.

Tests used:
[1] = tested on: lipopolysaccharide (LPS)-stimulated cultured human peripheral blood mononuclear cells (PBMCs); settings: cited from earlier work
[2] = tested on: stem cells obtained from patients suffering from PV or ET; settings: cited from earlier work
[3] = tested on: patients with JAK2^V617F mutation suffering from myeloproliferative syndromes (PV, ET, IM); assay: Phase II open clinical study in JAK2V617F-positive Philadelphia-negative myeloproliferative syndromes; format: in vivo, human; settings: 50 mg twice per day
Excerpt: Clinical study of ITF2357 in patients suffering from Philadelphia-negative myeloproliferative syndromes. Design: phase II, open, non-randomized study.
Population in the study: 27 patients with the JAK2^V617F mutation suffering from myeloproliferative syndromes not adequately controlled by the standard pharmacological treatment (hydroxyurea).
Duration of the treatment: up to a maximum of 24 weeks of continual administration.
Secondary objective: to evaluate the effect of the treatment on the mutated JAK2 allele burden by quantitative PCR.

[4] = tested on: LPS-induced serum TNFα and IFNγ; settings: mice, oral administration of 1.0 to 10 mg/kg; cited from earlier work
[5] = tested on: JAK2^V617F mutated human cell line SET-2; assay: Cloning efficiency of the human cell line SET-2 in methyl-cellulose; format: cell-based; settings: SET-2, 336 h; for EC50: read-out: EC50 (concentration required to reduce of 50% the number of clones)
Excerpt: For each experimental point 2 Petri dishes were done.

rhHDAC1 = rhHDAC1 (Homo sapiens, UniProt Q13547); assay: biochemical
Sequence of rhHDAC1 (Q13547 whole entry): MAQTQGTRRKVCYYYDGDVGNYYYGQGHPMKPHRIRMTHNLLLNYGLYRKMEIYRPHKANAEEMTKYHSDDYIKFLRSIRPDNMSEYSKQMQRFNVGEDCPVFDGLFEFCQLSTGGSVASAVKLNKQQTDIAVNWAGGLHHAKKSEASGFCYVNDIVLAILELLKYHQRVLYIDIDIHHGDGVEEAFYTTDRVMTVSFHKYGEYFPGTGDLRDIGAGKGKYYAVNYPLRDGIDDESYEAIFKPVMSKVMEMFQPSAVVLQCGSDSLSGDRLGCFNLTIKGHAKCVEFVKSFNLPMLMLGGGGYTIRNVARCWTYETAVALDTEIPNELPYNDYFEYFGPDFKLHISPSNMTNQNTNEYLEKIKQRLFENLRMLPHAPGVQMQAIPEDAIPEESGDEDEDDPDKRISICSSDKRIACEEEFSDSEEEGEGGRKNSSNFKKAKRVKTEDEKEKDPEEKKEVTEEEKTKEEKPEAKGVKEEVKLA
Procedure: Values for rhHDAC1 inhibition are also reported: the enzyme was obtained from BPS Biosciences (cat n. 50001) and the test was carried out using a BIOMOL kit, according to supplier instructions.

For `CCN(CC)Cc1ccc2cc(COC(=O)Nc3ccc(C(=O)NO)cc3)ccc2c1` [ITF2357, Diethyl-[6-(4-hydroxycarbamoyl-phenylcarbamoyloxymethyl)-naphthalen-2-ylmethyl]-ammonium chloride], the IC50 ([1]; read-out: concentration reducing by 50% the production of interferon-γ (IFNγ)) is listed as 25 nM, the IC50 ([1]; read-out: concentration reducing by 50% the release of intracellular interleukin (IL)-1α) is listed as 12 nM and the “concentrations inhibiting the clonogenic activity of stem cells” value [2] is listed as “sub-micromolar”. The “volume of the spleen” value ([3]; 4 to 12 weeks, patients who initially exhibited splenomegaly) was “significant reduction”, the “complete or partial response, share of cases” value ([3]; preliminary data, treatment 4 to 12 weeks, PV, ET or myelofibrosis patients) was “approximately 60%” and the “reduction of LPS-induced serum IFNγ” value [4] was “more than 50%”. The “reduction of LPS-induced serum TNFα” value [4] was “more than 50%” and the EC50 [5] was 28 to 54 nM.
For `CC(=O)SCC(=O)c1ccc(NS(=O)(=O)c2ccc(OCCCN(C)C)cc2)nc1` [KD-5170], the inhibition at 1 µM ([5]; read-out: inhibition of clones formation at 1 μM) was < 20% and the IC50 (rhHDAC1) was 24 nM.
Work on `Nc1ccccc1NC(=O)c1ccc(CNc2nccc(-c3cccnc3)n2)cc1` [MGCD-0103] yielded an EC50 [5] of 1200 nM.
Work on `Nc1ccccc1NC(=O)c1ccc(CNC(=O)OCc2cccnc2)cc1` [SNDX-275] yielded an EC50 [5] of 1820 nM.
